Source: patent US20190060428A1, “FORMULATIONS FOR NEOPLASIA VACCINES AND METHODS OF PREPARING THEREOF” (The Broad Institue Inc., priority 2015, published 2019)
Several values for one entry are separate records, joined by “and”; a condition that tells them apart may be missing. Equal entries are not always repeated. One block for each substance: values may come before it.

What was measured:
[1] = Short-term room temperature stability of Pool 3 mixed with Hiltonol (RP-HPLC); assay type: physicochemical
Protocol: A peptide pool (Pool 3) consisting of the five peptides shown in Table 6 below was prepared by dissolution in DMSO and dilution with D5W/Succinate (2 mM) to 2 mg/ml and pooling to a final peptide concentration of 400 μg per ml and a final DMSO concentration of 4%. After preparation, peptides were filtered with a 25 mm Pall PES filter (Cat#4612) and dispensed into Nunc Cryo vials (#375418) in one ml aliquots.
Three samples were prepared by mixing 0.75 ml of Pool3 with 0.25 ml Hiltonol® as planned for the dosage form preparation. The samples were then left at room temperature for 0, 4 and 6 hours and analyzed by RP-HPLC (Table 7). […] As slight increase in a second peak associated with peptide CS6919 was noted, increasing from 14% to 17% and 18% at 4 and 6 hours, respectively. […] Recovery of all peptides was above 90%, indicating no breakdown and loss of any peptides in the final dosage form after 6 hour room temperature incubation.

[2] = pH of peptide solutions in DMSO/D5W, with succinate, and with Hiltonol; assay type: physicochemical
[3] = Solubility of peptides in DMSO/D5W/5 mM succinate formulation; details: pH 6
[4] = Direct dissolution of peptides in D5W without DMSO; assay type: physicochemical; details: <1 mg peptide
[5] = Peptide diluent matrix (precipitation of DMSO dissolved peptides in various liquids); assay type: physicochemical; parameters: key to Precipitation in diluent: Liposome / Precipitation in diluent: PBS pH 7.4 / Precipitation in diluent: Water / Precipitation in diluent: 10% Sucrose / Precipitation in diluent: D5W (5% Dextrose USP Grade Inj): P = precipitation; NP = no precipitation
Protocol: Additional peptide solubility conditions were tested. Peptides CS6709, CS6712, CS6720, CS6726, and CS6783 were weighed at approximately 10 mg each. The peptides were then dissolved in approximately 200 μL USP grade DMSO to obtain a 50 mg/mL concentration for each peptide. […] The sample appeared to be cloudy. Additional 50 μL increments of DMSO were added to Peptide CS6709 up to 400 μL; for a total of 600 μL of DMSO. […] To dilute the peptides to 400 μg, a PBS pH 7.4 solution without potassium was prepared. All 5 DMSO peptide samples (50 mg/mL) were placed in a single vial for dilution to 400 μg/mL. Each DMSO peptide was added to the vial at 40 μL, except for CS6709 which was at a concentration of 16.67 mg/mL. The volume of CS6709 added to the single vial was 120 μL. The samples were diluted to 400 μg by adding 4.72 mL PBS pH 7.4. Upon addition of the PBS pH 7.4, it was observed that one or more of the peptides had precipitated out. To determine which of the peptides precipitated, Applicants followed the matrix in Table 5 below using very small amounts (10-20 μL) of the DMSO dissolved peptides and adding these peptides to the various liquids.

% Impurity ([1]; Pool 3 + Hiltonol, 4 Hours RT): 0%
% Purity ([1]; Pool 3 + Hiltonol, 4 Hours RT): 100%
Main Peak ([1]; Pool 3 + Hiltonol, 4 Hours RT): 6676.54
Total Impurities ([1]; Pool 3 + Hiltonol, 4 Hours RT): 0
Total Peak ([1]; Pool 3 + Hiltonol, 4 Hours RT): 6676.54
% Impurity ([1]; Pool 3 + Hiltonol, 6 Hours RT): 0%
% Purity ([1]; Pool 3 + Hiltonol, 6 Hours RT): 100%
Main Peak ([1]; Pool 3 + Hiltonol, 6 Hours RT): 7158.29
Total Impurities ([1]; Pool 3 + Hiltonol, 6 Hours RT): 0
Total Peak ([1]; Pool 3 + Hiltonol, 6 Hours RT): 7158.29
% Impurity ([1]; T0 Pool 3 + Hiltonol, RP-HPLC): 0%
% Purity ([1]; T0 Pool 3 + Hiltonol, RP-HPLC): 100%
Main Peak ([1]; T0 Pool 3 + Hiltonol, RP-HPLC): 7140.91
Total Impurities ([1]; T0 Pool 3 + Hiltonol, RP-HPLC): 0
Total Peak ([1]; T0 Pool 3 + Hiltonol, RP-HPLC): 7140.91
pH of peptides in DMSO/D5W [2]: 3.92
pH of peptides in DMSO/D5W/5mM S. Succinate spike [2]: 6.49
pH of peptides in DMSO/D5W/5nnM Succinate and Hiltonol [2]: 6.78
Substance: H-AHRQGEKQHLLPVFSRLALRLPWRHSVQL-OH [CS6941]

Substance: H-ASRALEEKKGNYVVTDHGSCVRA-OH
solubility [3]: > 2000 µg/mL

Substance: H-AVRSPGSPLILEVGSGSGAIS-OH
solubility [3]: > 2000 µg/mL

Substance: H-DPNKYPVPENWLYKEAHQLFLE-OH
solubility [3]: > 2000 µg/mL

Dissolution directly in D5W without using DMSO [4]: could be dissolved directly in D5W
Precipitation in diluent: 10% Sucrose ([5]; 10-20 μL DMSO dissolved peptide added to 10% Sucrose): NP
Precipitation in diluent: D5W (5% Dextrose USP Grade Inj) ([5]; 10-20 μL DMSO dissolved peptide added to D5W): NP
Precipitation in diluent: Liposome ([5]; 10-20 μL DMSO dissolved peptide added to Liposome): NP
Precipitation in diluent: PBS pH 7.4 ([5]; 10-20 μL DMSO dissolved peptide added to PBS pH 7.4): NP
Precipitation in diluent: Water ([5]; 10-20 μL DMSO dissolved peptide added to Water): NP
Substance: H-DSAVDKGHPNRSALSLTPGLRIGPSGIPQAGLG-OH [CS6726]

Substance: H-ESKLFGDPDEFSLAHLLEPFRQYYL-OH
solubility [3]: < 2000 µg/mL

Substance: H-ETYSRSFYPEHSIKEWLIGMELVFV-OH
solubility [3]: < 2000 µg/mL

Substance: H-GALGAVGATKVPRNQDWLGVSRQLRTKA-OH
solubility [3]: > 2000 µg/mL

Substance: H-HPEFANPDSMEYISDVVDEVIQN-OH
solubility [3]: > 2000 µg/mL

% Impurity ([1]; Pool 3 + Hiltonol, 4 Hours RT): 17% and 17.09%
% Purity ([1]; Pool 3 + Hiltonol, 4 Hours RT): 82.91%
Main Peak ([1]; Pool 3 + Hiltonol, 4 Hours RT): 7238.56
Total Impurities ([1]; Pool 3 + Hiltonol, 4 Hours RT): 1492.4
Total Peak ([1]; Pool 3 + Hiltonol, 4 Hours RT): 8730.96
% Impurity ([1]; Pool 3 + Hiltonol, 6 Hours RT): 18% and 18.14%
% Purity ([1]; Pool 3 + Hiltonol, 6 Hours RT): 81.86%
Main Peak ([1]; Pool 3 + Hiltonol, 6 Hours RT): 7688.89
Total Impurities ([1]; Pool 3 + Hiltonol, 6 Hours RT): 1703.9
Total Peak ([1]; Pool 3 + Hiltonol, 6 Hours RT): 9392.79
% Impurity ([1]; T0 Pool 3 + Hiltonol, RP-HPLC): 14% and 13.9%
% Purity ([1]; T0 Pool 3 + Hiltonol, RP-HPLC): 86.1%
Main Peak ([1]; T0 Pool 3 + Hiltonol, RP-HPLC): 7786.28
Total Impurities ([1]; T0 Pool 3 + Hiltonol, RP-HPLC): 1256.72
Total Peak ([1]; T0 Pool 3 + Hiltonol, RP-HPLC): 9043
pH of peptides in DMSO/D5W [2]: 4.38
pH of peptides in DMSO/D5W/5mM S. Succinate spike [2]: 6.74
pH of peptides in DMSO/D5W/5nnM Succinate and Hiltonol [2]: 6.99
Substance: H-KLAWRGRISSSGCPSMTSPPSPMFGMTLHT-OH [CS6919]

Substance: H-LAALCPASRALEEKKGNYVVTDH-OH
solubility [3]: > 2000 µg/mL

Substance: H-LAALCPASRALEEKKGNYVVTDHGS-OH
solubility [3]: > 2000 µg/mL

Substance: H-LCPASRALEEKKGNYVVTDHGS-OH
solubility [3]: > 2000 µg/mL
